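GI50 is the concentration that inhibits growth by half. The concentration for full growth arrest is given as TGI.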
What was measured:
Experiment in all cases: growth of human tumour cells (NCI), 384-well format
[1] = test system: SF-295 CNS
[2] = test system: SK-MEL-28 melanoma
[3] = test system: SK-MEL-5 melanoma
[4] = test system: NCI/ADR-RES ovarian
[5] = test system: UACC-257 melanoma
[6] = test system: UACC-62 melanoma
[7] = test system: OVCAR-4 ovarian
[8] = test system: MCF7 breast
[9] = test system: MOLT-4 leukemia
[10] = test system: M14 melanoma
[11] = test system: SK-MEL-2 melanoma
[12] = test system: HL-60(TB) leukemia
[13] = test system: OVCAR-5 ovarian
[14] = test system: RPMI-8226 leukemia
[15] = test system: PC-3 prostate
[16] = test system: HS 578T breast
[17] = test system: SNB-19 CNS
[18] = test system: MALME-3M melanoma
[19] = test system: NCI-H522 lung
[20] = test system: K-562 leukemia
[21] = test system: HOP-62 NSCLC
[22] = test system: UO-31 renal
[23] = test system: 786-0 renal
[24] = test system: COLO 205 colon
[25] = test system: T-47D breast
[26] = test system: HCT-116 colon
[27] = test system: SNB-75 CNS
[28] = test system: NCI-H23 lung
[29] = test system: HT29 colon
[30] = test system: HOP-92 NSCLC
[31] = test system: IGROV1 ovarian
[32] = test system: EKVX NSCLC
[33] = test system: ACHN renal
[34] = test system: SN12C renal
[35] = test system: TK-10 renal
[36] = test system: RXF 393 renal
[37] = test system: A498 renal
[38] = test system: LOX IMVI melanoma
[39] = test system: A549 NSCLC
[40] = test system: MDA-MB-468 breast
[41] = test system: SW-620 colon
[42] = test system: OVCAR-8 ovarian
[43] = test system: DU-145 prostate
[44] = test system: OVCAR-3 ovarian
[45] = test system: MDA-MB-435 melanoma
[46] = test system: U251 glioblastoma
[47] = test system: CAKI-1 renal
[48] = test system: SK-OV-3 ovarian
[49] = test system: NCI-H322M lung
[50] = test system: MDA-MB-231 breast
[51] = test system: BT-549 breast
[52] = test system: HCC-2998 colon
[53] = test system: NCI-H460 NSCLC
[54] = test system: KM12 colon
[55] = test system: SF-539 CNS
[56] = test system: HCT-15 colon
[57] = test system: CCRF-CEM leukemia
[58] = test system: NCI-H226 lung
[59] = test system: SF-268 CNS

Question: C[C@]12O[C@H](C[C@]1(O)CO)n1c3ccccc3c3c4c(c5c6ccccc6n2c5c31)CNC4=O was tested. Which GI50 [1] did it give?
Answer: 0.0447 µM

Question: And the TGI [1]?
Answer: 1.26 µM

Question: And the GI50 [2]?
Answer: 0.0358 µM

Question: What about the TGI [2] of the same compound?
Answer: 0.453 µM

Question: And the GI50 [3]?
Answer: < 0.01 µM

Question: And the TGI [3]?
Answer: 0.145 µM

Question: And the GI50 [4]?
Answer: 1.2 µM

Question: And the TGI [4]?
Answer: 2.46 µM

Question: And the GI50 [5]?
Answer: 0.395 µM

Question: And the TGI [5]?
Answer: 1.68 µM

Question: What about the GI50 [6] of the same compound?
Answer: < 0.01 µM

Question: What about the TGI [6] of the same compound?
Answer: 0.61 µM

Question: What about the GI50 [7] of the same compound?
Answer: 1.38 µM

Question: And the TGI [7]?
Answer: 3.2 µM

Question: And the GI50 [8]?
Answer: 0.0642 µM

Question: What about the TGI [8] of the same compound?
Answer: 1.33 µM

Question: And the GI50 [9]?
Answer: < 0.01 µM

Question: What about the TGI [9] of the same compound?
Answer: 0.0128 µM

Question: What about the GI50 [10] of the same compound?
Answer: < 0.01 µM

Question: What about the TGI [10] of the same compound?
Answer: 0.155 µM

Question: What about the GI50 [11] of the same compound?
Answer: < 0.01 µM

Question: And the TGI [11]?
Answer: 0.0847 µM

Question: And the GI50 [12]?
Answer: < 0.01 µM

Question: And the TGI [12]?
Answer: 0.0516 µM

Question: What about the GI50 [13] of the same compound?
Answer: 0.122 µM

Question: And the TGI [13]?
Answer: 1.9 µM

Question: And the GI50 [14]?
Answer: 0.0116 µM

Question: And the TGI [14]?
Answer: 0.0398 µM

Question: What about the GI50 [15] of the same compound?
Answer: 0.1 µM

Question: What about the TGI [15] of the same compound?
Answer: 1.86 µM

Question: And the GI50 [16]?
Answer: 0.0339 µM

Question: What about the TGI [16] of the same compound?
Answer: 0.769 µM

Question: What about the GI50 [17] of the same compound?
Answer: 0.341 µM

Question: What about the TGI [17] of the same compound?
Answer: 1.85 µM

Question: And the GI50 [18]?
Answer: < 0.01 µM

Question: And the TGI [18]?
Answer: 0.0795 µM

Question: And the GI50 [19]?
Answer: < 0.01 µM

Question: And the TGI [19]?
Answer: 0.111 µM

Question: What about the GI50 [20] of the same compound?
Answer: 0.0601 µM

Question: And the TGI [20]?
Answer: 1.61 µM

Question: And the GI50 [21]?
Answer: 0.0445 µM

Question: And the TGI [21]?
Answer: 0.646 µM

Question: And the GI50 [22]?
Answer: 0.0149 µM

Question: What about the TGI [22] of the same compound?
Answer: 1.16 µM

Question: What about the GI50 [23] of the same compound?
Answer: 0.0313 µM

Question: And the TGI [23]?
Answer: 0.515 µM

Question: What about the GI50 [24] of the same compound?
Answer: 0.0202 µM

Question: What about the TGI [24] of the same compound?
Answer: 0.103 µM

Question: And the GI50 [25]?
Answer: 0.456 µM

Question: And the TGI [25]?
Answer: 4.26 µM

Question: What about the GI50 [26] of the same compound?
Answer: < 0.01 µM

Question: What about the TGI [26] of the same compound?
Answer: 10.3 µM

Question: And the GI50 [27]?
Answer: 0.143 µM

Question: And the TGI [27]?
Answer: 1.16 µM

Question: And the GI50 [28]?
Answer: 0.0241 µM

Question: What about the TGI [28] of the same compound?
Answer: 0.311 µM

Question: And the GI50 [29]?
Answer: 0.212 µM

Question: And the TGI [29]?
Answer: 10.5 µM

Question: And the GI50 [30]?
Answer: 0.0706 µM

Question: What about the TGI [30] of the same compound?
Answer: 0.72 µM

Question: What about the GI50 [31] of the same compound?
Answer: < 0.01 µM

Question: What about the TGI [31] of the same compound?
Answer: 1.15 µM

Question: And the GI50 [32]?
Answer: 0.0336 µM

Question: What about the TGI [32] of the same compound?
Answer: 0.471 µM

Question: What about the GI50 [33] of the same compound?
Answer: < 0.01 µM

Question: What about the TGI [33] of the same compound?
Answer: 1.68 µM

Question: What about the GI50 [34] of the same compound?
Answer: < 0.01 µM

Question: And the TGI [34]?
Answer: 0.458 µM

Question: What about the GI50 [35] of the same compound?
Answer: < 0.01 µM

Question: What about the TGI [35] of the same compound?
Answer: 0.598 µM

Question: What about the GI50 [36] of the same compound?
Answer: < 0.01 µM

Question: And the TGI [36]?
Answer: 0.0496 µM

Question: And the GI50 [37]?
Answer: < 0.01 µM

Question: What about the TGI [37] of the same compound?
Answer: 1.37 µM

Question: And the GI50 [38]?
Answer: 0.0253 µM

Question: What about the TGI [38] of the same compound?
Answer: 0.186 µM

Question: What about the GI50 [39] of the same compound?
Answer: 0.0763 µM

Question: What about the TGI [39] of the same compound?
Answer: 1.59 µM

Question: What about the GI50 [40] of the same compound?
Answer: 0.0215 µM

Question: What about the TGI [40] of the same compound?
Answer: 0.29 µM

Question: And the GI50 [41]?
Answer: 0.0416 µM

Question: And the TGI [41]?
Answer: 1.45 µM

Question: And the GI50 [42]?
Answer: 0.0965 µM

Question: And the TGI [42]?
Answer: 0.275 µM

Question: And the GI50 [43]?
Answer: < 0.01 µM

Question: What about the TGI [43] of the same compound?
Answer: 1.62 µM

Question: What about the GI50 [44] of the same compound?
Answer: 0.157 µM

Question: And the TGI [44]?
Answer: 1.28 µM

Question: What about the GI50 [45] of the same compound?
Answer: < 0.01 µM

Question: And the TGI [45]?
Answer: 1.11 µM

Question: What about the GI50 [46] of the same compound?
Answer: 0.29 µM

Question: What about the TGI [46] of the same compound?
Answer: 1.88 µM

Question: And the GI50 [47]?
Answer: < 0.01 µM

Question: What about the TGI [47] of the same compound?
Answer: 0.228 µM

Question: And the GI50 [48]?
Answer: < 0.01 µM

Question: And the TGI [48]?
Answer: 0.627 µM

Question: And the GI50 [49]?
Answer: 0.584 µM

Question: And the TGI [49]?
Answer: 2.14 µM

Question: And the GI50 [50]?
Answer: 0.0609 µM

Question: What about the TGI [50] of the same compound?
Answer: 1.54 µM

Question: What about the GI50 [51] of the same compound?
Answer: 0.0123 µM

Question: What about the TGI [51] of the same compound?
Answer: 0.213 µM

Question: And the GI50 [52]?
Answer: 0.153 µM

Question: What about the TGI [52] of the same compound?
Answer: 0.773 µM

Question: And the GI50 [53]?
Answer: 0.0348 µM

Question: What about the TGI [53] of the same compound?
Answer: 1.09 µM

Question: What about the GI50 [54] of the same compound?
Answer: < 0.01 µM

Question: What about the TGI [54] of the same compound?
Answer: 0.212 µM

Question: And the GI50 [55]?
Answer: 0.0242 µM

Question: And the TGI [55]?
Answer: 0.276 µM

Question: And the GI50 [56]?
Answer: < 0.01 µM

Question: And the TGI [56]?
Answer: 1.3 µM

Question: And the GI50 [57]?
Answer: 0.0113 µM

Question: And the TGI [57]?
Answer: 0.0397 µM

Question: And the GI50 [58]?
Answer: 0.0574 µM

Question: What about the TGI [58] of the same compound?
Answer: 0.734 µM

Question: What about the GI50 [59] of the same compound?
Answer: 0.0442 µM

Question: What about the TGI [59] of the same compound?
Answer: 1.4 µM
